test system: genotype A, "Long" strain RSV; test: RSV-A in vitro cytoprotection assay in HEp-2 cells (ATPlite readout of cell viability); type: cell-based, Human respiratory syncytial virus; conditions: human respiratory syncytial virus, HEp-2, HEp-2 cells, genotype A “Long” strain RSV, cytoprotection; read-out: Human RSV-A (“Long” strain) EC50
In short: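 Cytoprotection measured as ATP-based luminescence (ATPlite) after 4-day incubation of RSV Long-infected HEp-2 cells (8,000/well, 10% FBS DMEM) with 2-fold serial compound dilutions in duplicate. Identically treated virus-free plate gives cytotoxicity; EC50 calculated from viability.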

Structure (SMILES) | EC50 [nM]
Cc1cccc(F)c1NC(=O)c1cc2c(s1)-c1ccccc1N(C(=O)c1cccc(-c3c[nH]c4ccccc34)n1)CC2 [Example 207] | < 400
O=C(NC1CC1)c1cc2c(s1)-c1ccccc1N(C(=O)c1cccc(-c3ccc(N4CCCC4)nc3)n1)CC2 [Example 80] | > 800
O=C(NC1CC1)c1cc2c(s1)-c1ccccc1N(C(=O)c1cccc(N3CCS(=O)(=O)c4ccccc4C3)n1)CC2 [Example 283] | < 400
Cc1cccc(F)c1NC(=O)c1cc2c(s1)-c1ccccc1N(C(=O)c1cccc(N(C)Cc3ccncc3)n1)CC2 [Example 339] | < 400
Cc1cccc(F)c1NC(=O)c1cc2c(s1)-c1ccccc1N(C(=O)c1ccc(Nc3cccnc3N3CC4(CCOCC4)C3)cc1)CC2 [Example 134] | > 800
O=C(c1cccc(N2CCCOCC2)n1)N1CCc2cc(S(=O)(=O)NC3CCOCC3)sc2-c2ccccc21 [Example 318] | > 800
Cc1cccc(F)c1NC(=O)c1cc2c(s1)-c1ccccc1N(C(=O)c1cccc(N3CCS(=O)(=O)c4ccccc4[C@@H]3C)n1)CC2 [Example 434] | > 800
Cc1cccc(F)c1NC(=O)c1cc2c(s1)-c1ccccc1N(C(=O)c1cccc(N3CCC[C@@H]3C(C)C)n1)CC2 [Example 482] | > 800
Cc1cccc(F)c1NC(=O)c1cc2c(s1)-c1ccccc1N(C(=O)c1cccc(N3CCOCC(F)(F)C3)n1)CC2 [Example 400] | < 400
Cc1cccc(F)c1NC(=O)c1cc2c(s1)-c1ccccc1N(C(=O)c1cccc(N3CCC[C@@H]3Cc3ccccc3)n1)CC2 [Example 486] | > 800
O=C(NC1CC1)c1cc2c(s1)-c1ccccc1N(C(=O)c1ccc(CC(=O)N3CCOCC3)cc1)CC2 [Example 8] | > 800
O=C(NC1CC1)c1cc2c(s1)-c1ccccc1N(C(=O)c1ccc(Cl)c(-c3ccnc(N4CCOCC4)c3)n1)CC2 [Example 93] | > 800
Cc1cccc(F)c1NC(=O)c1cc2c(s1)-c1ccccc1N(C(=O)c1cccc(N3CCS(=O)(=O)c4ccccc4C3)n1)CC2 [Example 419] | < 400
Cc1cccc(F)c1NC(=O)c1cc2c(s1)-c1ccccc1N(C(=O)c1cccc(N3CCOc4ccccc4C3C)n1)CC2 (stereo not shown) [Example 364] | > 800
O=C(NC1CCOCC1)c1cc2c(s1)-c1ccccc1N(C(=O)c1cccc(-c3c[nH]nc3C3CC3)n1)CC2 [Example 180] | < 400
O=C(NC1CC1)c1cc2c(s1)-c1ccccc1N(C(=O)c1cccc(C3CCN(C4COC4)CC3)n1)CC2 [Example 57] | 400 to 800

Structure (SMILES) | EC50 [nM]
O=C(NC1CC1)c1cc2c(s1)-c1ccccc1N(C(=O)c1cccc(N3CCOc4ccc(F)cc4C3)n1)CC2 [Example 278] | < 400
O=C(NC1CC1)c1cc2c(s1)-c1ccccc1N(C(=O)c1cccc(N3CCOCC(C(=O)N4CCOCC4)C3)n1)CC2 (stereo not shown) [Example 285] | > 800
O=C(NC1CC1)c1cc2c(s1)-c1ccccc1N(C(=O)c1cccc(-c3ccc(F)nc3)n1)CC2 [Example 81] | 400 to 800
Cc1cccc(F)c1NC(=O)c1cc2c(s1)-c1ccccc1N(C(=O)c1cccc(NCc3cccc4ccccc34)n1)CC2 [Example 345] | > 800
Cc1cccc(F)c1NC(=O)c1cc2c(s1)-c1ccccc1N(C(=O)c1cccc(-c3ccc4[nH]c(=O)ccc4c3)n1)CC2 [Example 190] | < 400
Cc1cc(-c2ccc(C(=O)N3CCc4cc(C(=O)Nc5c(C)cccc5F)sc4-c4ccccc43)cc2)n(S(C)(=O)=O)n1 [Example 271] | > 800
Cc1cnc(N2CCOCC2)c(NC(=O)c2ccc(C(=O)N3CCc4cc(C(=O)Nc5c(C)cccc5F)sc4-c4ccccc43)cc2)c1 [Example 137] | > 800
COCCNC(=O)c1cc2c(s1)-c1ccccc1N(C(=O)c1cccc(N3CCCOCC3)n1)CC2 [Example 101] | < 400
COc1ccccc1CN(c1cccc(C(=O)N2CCc3cc(C(=O)Nc4c(C)cccc4F)sc3-c3ccccc32)n1)C1CC1 [Example 342] | 400 to 800
O=C(Nc1cccc(=O)[nH]1)c1cc2c(s1)-c1ccccc1N(C(=O)c1cccc(N3CCOc4ccccc4C3)n1)CC2 [Example 304] | > 800
O=C(NC1CC1)c1cc2c(s1)-c1ccccc1N(C(=O)c1ccc3ccc(N4CCOCC4)nc3c1)CC2 [Example 297] | > 800
Cc1cccc(F)c1NC(=O)c1cc2c(s1)-c1ccccc1N(C(=O)c1cccc(NC(C)CS(C)(=O)=O)n1)CC2 (stereo not shown) [Example 464] | > 800
Cc1cccc(F)c1NC(=O)c1cc2c(s1)-c1ccccc1N(C(=O)c1cccc(-c3ccc4ncccc4c3)n1)CC2 [Example 188] | < 400
Cc1cccc(F)c1NC(=O)c1cc2c(s1)-c1ccccc1N(C(=O)c1cccc(-c3cncn3-c3ccccc3F)n1)CC2 [Example 205] | > 800
Cc1cccc(F)c1NC(=O)c1cc2c(s1)-c1ccccc1N(C(=O)c1cccc(N3CCCOCC3)n1)CC2 [Example 323] | < 400

Source: patent US10759816B2, “Heterocyclic compounds as RSV inhibitors” (Enanta Pharmaceuticals, Inc., priority 2016, dated 2020)
